The values below come from US8637561B2, “Linked diimidazole derivatives” (Enanta Pharmaceuticals, Inc., priority 2009, dated 2014).

Molecules are shown by their SMILES.

In the assay the test system is HCV 1b genotype replicon. Description: HCV replicon assay (qRT-PCR or luciferase), genotype 1b. In kind it is cell-based. Particulars: Hepatitis C virus, read-out: Genotype-1b replicon EC50 Range. The source says:
HCV replicon cell lines (kindly provided by R. Bartenschlager) isolated from colonies as described by Lohman et al. (Lohman et al. (1999) Science 285: 110-113, expressly incorporated by reference in its entirety) and used for all experiments. The HCV replicon has the nucleic acid sequence set forth in EMBL Accession No.: AJ242651, the coding sequence of which is from nucleotides 1801 to 8406.
The coding sequence of the published HCV replicon was synthesized and subsequently assembled in a modified plasmid pBR322 (Promega, Madison, Wis.) using standard molecular biology techniques. One replicon cell line (“SGR 11-7”) stably expresses HCV replicon RNA which consists of (i) the HCV 5′UTR fused to the first 12 amino acids of the capsid protein, (ii) the neomycin phosphotransferase gene (neo), (iii) the IRES from encephalomyocarditis virus (EMCV), and (iv) HCV NS2 to NS5B genes and the HCV 3′UTR. […]
EC50 values of single agent compounds and combinations were determined by HCV RNA detection using quantitative RT-PCR, according to the manufacturer's instructions, with a TaqMan® One-Step RT-PCR Master Mix Reagents Kit (Cat# AB 4309169, Applied Biosystems) on an ABI Model 7500 thermocycler. The TaqMan primers used for detecting and quantifying HCV RNA were obtained from Integrated DNA Technologies. HCV RNA was normalized to GAPDH RNA levels in drug-treated cells, which is detected and quantified using the Human GAPDH Endogenous Control Mix (Applied Biosystems, AB 4310884E). […] Chemical agent cytotoxicity is evaluated using an MTS assay according to the manufacturer's directions (Promega). […]

By EC50 is commonly meant the concentration needed to bring the measured effect to its halfway point. Regarding `COC(=O)N[C@@H](C(=O)N1CCC[C@H]1c1nc(C2=CCC(c3ccc(-c4cnc([C@@H]5CCCN5C(=O)[C@H](NC(=O)OC)c5ccccc5)[nH]4)cc3)CC2)c[nH]1)c1ccccc1` (stereo partly drawn) [Example 1-b], the EC50 is under 1 nM.

On to `COC(=O)N[C@@H](C(=O)N1CCC[C@H]1c1ncc(CCc2ccc(-c3cnc([C@@H]4CCCN4C(=O)[C@H](NC(=O)OC)c4ccccc4)[nH]3)cc2)[nH]1)c1ccccc1` [Example 361], for which the half-maximal effective concentration (EC50) is under 1 nM.

Consider `COC(=O)N[C@@H](C(=O)N1CCC[C@H]1c1ncc(C#Cc2ccc(-c3cnc([C@@H]4CCCN4C(=O)[C@H](NC(=O)OC)c4ccccc4)[nH]3)cc2)[nH]1)c1ccccc1` [Example 299], for which the half-maximal effective concentration (EC50) is under 1 nM.
